Data: ChEMBL document CHEMBL3784965, “Discovery of (R)-6-(1-(8-Fluoro-6-(1-methyl-1H-pyrazol-4-yl)-[1,2,4]triazolo[4,3-a]pyridin-3-yl)ethyl)-3-(2-methoxyethoxy)-1,6-naphthyridin-5(6H)-one (AMG 337), a Potent and Selective Inhibitor of MET with High Unbound Target Coverage and Robust In Vivo Antitumor Activity” (J Med Chem, 2016)
≈ marks a conversion by molar mass, not a printed value.

Assays:
[1] = Half life in Sprague-Dawley rat; assay type: ADME, organism-based; conditions: in vivo
[2] = biological target: T1, Cytochrome P450 3A4 (Homo sapiens, UniProt P08684); assay: Inhibition of CYP3A4 (unknown origin) in absence of NADPH; assay type: ADME
T1 sequence (P08684 whole entry): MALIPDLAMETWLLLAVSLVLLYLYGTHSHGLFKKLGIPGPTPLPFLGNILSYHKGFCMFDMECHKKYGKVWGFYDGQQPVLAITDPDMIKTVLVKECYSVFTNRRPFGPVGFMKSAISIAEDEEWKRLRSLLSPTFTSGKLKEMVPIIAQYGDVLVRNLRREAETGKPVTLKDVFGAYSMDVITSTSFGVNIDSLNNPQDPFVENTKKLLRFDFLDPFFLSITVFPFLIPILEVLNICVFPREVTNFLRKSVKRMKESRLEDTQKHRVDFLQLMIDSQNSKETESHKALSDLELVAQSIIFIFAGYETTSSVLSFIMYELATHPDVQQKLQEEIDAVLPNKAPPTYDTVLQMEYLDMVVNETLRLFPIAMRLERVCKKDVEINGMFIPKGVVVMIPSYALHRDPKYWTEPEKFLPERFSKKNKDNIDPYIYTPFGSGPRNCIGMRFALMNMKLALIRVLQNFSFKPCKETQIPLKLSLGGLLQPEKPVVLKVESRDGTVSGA

[3] = Solubility of compound in 0.01 N HCl; assay type: physicochemical
[4] = biological target: T1, Cytochrome P450 3A4; assay: (§1) Inhibition of CYP3A4 (unknown origin) in presence of NADPH; assay type: ADME
[5] = test system: Mus musculus; assay: In vivo inhibition of HGF-induced phosphorylation of MET in Balb/c mouse liver assessed as time required for >90% inhibition at 10 mg/kg administered via oral gavage; assay type: functional
[6] = Solubility of compound in SIF; assay type: physicochemical
[7] = test system: Plasma; assay: Unbound plasma concentration in Balb/c mouse at 10 mg/kg, administered via oral gavage measured at 6 hrs; assay type: ADME, organism-based; conditions: in vivo
[8] = Solubility of compound in PBS; assay type: physicochemical
[9] = species: Rattus norvegicus; assay: Unbound clearance in Sprague-Dawley rat at 5 ug/ml by equilibrium dialysis method; assay type: ADME, organism-based; conditions: in vivo
[10] = test system: Plasma; assay: Unbound plasma concentration in Balb/c mouse at 10 mg/kg, administered via oral gavage measured at 12 hrs; assay type: ADME, organism-based; conditions: in vivo
[11] = test system: Plasma; assay: Unbound plasma concentration in Balb/c mouse at 30 mg/kg, administered via oral gavage measured at 6 hrs; assay type: ADME, organism-based; conditions: in vivo
[12] = Clearance in Sprague-Dawley rat at 0.25 mg/kg, iv; assay type: ADME, organism-based; conditions: in vivo
[13] = biological target: CYP3A4 (Homo sapiens, UniProt P08684); assay: as §1; assay type: ADME
Sequence of CYP3A4 (P08684 whole entry): as above

[14] = test system: Mus musculus; assay: In vivo inhibition of HGF-induced phosphorylation of MET in Balb/c mouse liver assessed as time required for >90% inhibition at 30 mg/kg administered via oral gavage; assay type: functional
[15] = test system: Mus musculus; assay: In vivo inhibition of HGF-induced phosphorylation of MET in Balb/c mouse liver assessed as phosphorylated cMET level at 10 mg/kg administered via oral gavage followed by HGF injection 9 hrs post dose by electrochemiluminescence immunoassay relative to control; assay type: functional; design: scale not given: the % may be the effect or the level left
[16] = Fraction unbound in Sprague-Dawley rat plasma at 5 ug/ml by equilibrium dialysis method; assay type: ADME, cell-free
[17] = Intrinsic clearance in rat liver microsomes; assay type: ADME; conditions: read-out: CLH
[18] = Fraction unbound in mouse plasma at 5 ug/ml by equilibrium dialysis method; assay type: ADME, cell-free
[19] = test system: Mus musculus; assay: In vivo inhibition of HGF-induced phosphorylation of MET in Balb/c mouse liver assessed as phosphorylated cMET level at 10 mg/kg administered via oral gavage followed by HGF injection 12 hrs post dose by electrochemiluminescence immunoassay relative to control; assay type: functional; design: scale not given: the % may be the effect or the level left
[20] = Intrinsic clearance in mouse liver microsomes; assay type: ADME; conditions: read-out: CLH
[21] = Intrinsic clearance in human liver microsomes; assay type: ADME; conditions: read-out: CLH
[22] = test system: Mus musculus; assay: In vivo inhibition of HGF-induced phosphorylation of MET in Balb/c mouse liver assessed as phosphorylated cMET level at 10 mg/kg administered via oral gavage followed by HGF injection 6 hrs post dose by electrochemiluminescence immunoassay relative to control; assay type: functional; design: scale not given: the % may be the effect or the level left
[23] = test system: Plasma; assay: Unbound plasma concentration in mouse at 10 mg/kg, po measured at 9 hrs; assay type: ADME, organism-based; conditions: in vivo
[24] = test system: Mus musculus; assay: In vivo inhibition of HGF-induced phosphorylation of MET in Balb/c mouse liver assessed as phosphorylated cMET level at 10 mg/kg administered via oral gavage followed by HGF injection 3 hrs post dose by electrochemiluminescence immunoassay relative to control; assay type: functional; design: scale not given: the % may be the effect or the level left
[25] = test system: Mus musculus; assay: In vivo inhibition of HGF-induced phosphorylation of MET in Balb/c mouse liver assessed as phosphorylated cMET level at 10 mg/kg administered via oral gavage followed by HGF injection 24 hrs post dose by electrochemiluminescence immunoassay relative to control; assay type: functional; design: scale not given: the % may be the effect or the level left
[26] = Fraction unbound in human plasma at 5 ug/ml by equilibrium dialysis method; assay type: ADME, cell-free
[27] = test system: Mus musculus; assay: In vivo inhibition of HGF-induced phosphorylation of MET in Balb/c mouse liver assessed as phosphorylated cMET level at 10 mg/kg administered via oral gavage followed by HGF injection 1 hr post dose by electrochemiluminescence immunoassay relative to control; assay type: functional; design: scale not given: the % may be the effect or the level left
[28] = Volume of distribution at steady state in Sprague-Dawley rat; assay type: ADME, organism-based; conditions: in vivo, read-out: Vdss
[29] = Oral bioavailability in Sprague-Dawley rat at 2 mg/kg; assay type: ADME, organism-based; conditions: in vivo
[30] = Oral bioavailability in Beagle dog at 10 mg/kg; assay type: ADME, organism-based, Canis lupus familiaris; conditions: in vivo
[31] = Oral bioavailability in Beagle dog at 30 mg/kg; assay type: ADME, organism-based, Canis lupus familiaris; conditions: in vivo
[32] = Half life in iv dosed Beagle dog; assay type: ADME, organism-based, Canis lupus familiaris; conditions: in vivo
[33] = AUC(0 to infinity) in Beagle dog at 30 mg/kg, po; assay type: ADME, organism-based, Canis lupus familiaris; design: dose 30 mg/kg, time infinity, route oral; conditions: in vivo
[34] = AUC(0 to infinity) in Beagle dog at 10 mg/kg,po; assay type: ADME, organism-based, Canis lupus familiaris; design: dose 10 mg/kg, route oral, time infinity; conditions: in vivo
[35] = species: Canis familiaris; assay: Unbound clearance in Beagle dog at 5 ug/ml by equilibrium dialysis method; assay type: ADME, organism-based, Canis lupus familiaris; conditions: in vivo
[36] = Volume of distribution at steady state in iv dosed Beagle dog; assay type: ADME, organism-based, Canis lupus familiaris; conditions: in vivo, read-out: Vdss
[37] = Clearance in Beagle dog at 0.425 mg/kg, iv; assay type: ADME, organism-based, Canis lupus familiaris; conditions: in vivo

Row | half-life [1] | solubility [8] | CL free [9] | clearance [12] | fraction unbound at 5 ug/ml [16] | microsomal CLint [17] | fraction unbound at 5 ug/ml [18] | microsomal CLint [20] | microsomal CLint [21] | fraction unbound at 5 ug/ml [26] | Vd [28] | bioavailability [29] | Compound | Activity [15] | Activity [19] | Activity [22] | Activity [24] | Activity [25] | Activity [27] | further results
1 | 4.2 h | 52 µg/mL (≈ 116 µM) | 433 mL/min/kg |  |  |  |  |  |  |  |  |  | COCCOc1cnc2ccc([C@H](C)c3nnc4c(F)cc(-c5cc(C)no5)cn34)cc2c1 |  |  |  |  |  |  | IC50 [2]: > 50 µM; solubility [3]: > 200 µg/mL; IC50 [4]: > 50 µM; Time [5]: 6 h; solubility [6]: 126 µg/mL (≈ 282 µM); Cp(f) [7]: 141 nM
2 | 3.4 h | 9 µg/mL (≈ 19.5 µM) | 517 mL/min/kg |  |  |  |  |  |  |  |  |  | COCCOc1cnc2ccc([C@H](C)n3nnc4ccn(-c5cc(C)ns5)c(=O)c43)cc2c1 |  |  |  |  |  |  | IC50 [2]: 21 µM; IC50 [4]: 21 µM; Time [5]: 12 h; Cp(f) [10]: 20 nM
3 | 1.8 h | 3 µg/mL (≈ 7.42 µM) | 433 mL/min/kg | 3.17 mL/min/kg |  |  |  |  |  |  |  |  | COc1cnc2c(NCc3nnc4ccc(-c5cc(C)ns5)nn34)ccnc2c1 |  |  |  |  |  |  | Cp(f) [11]: 9 nM; solubility [3]: > 200 µg/mL; IC50 [13]: > 50 µM; Time [14]: 6 h; solubility [6]: 13 µg/mL (≈ 32.1 µM)
4 | 0.8 h |  | 31.7 mL/min/kg | 6.33 mL/min/kg | 0.196 | 8 µL/min/mg | 0.245 | < 5 µL/min/mg | 14 µL/min/mg | 0.32 | 0.4 L/kg | 44% | Cc1cc(-c2cc(F)c3nnc([C@@H](C)n4ccc5ncccc5c4=O)n3c2)on1 | 91% | 40% | 98% | 101% | 12% | 100% | TDI ([2]; human): Not Active; TDI ([4]; human): Not Active; Cp(f) [23]: 193 nM
5 | 2.9 h |  | 40 mL/min/kg | 3.33 mL/min/kg | 0.08 | 16 µL/min/mg | 0.317 | 14 µL/min/mg | 20 µL/min/mg | 0.409 | 0.7 L/kg | 54% | COCCOc1cnc2ccn([C@H](C)c3nnc4c(F)cc(-c5cc(C)no5)cn34)c(=O)c2c1 | 99% | 51% | 99% | 100% | 28% | 101% | 
6 | 2.4 h |  | 25 mL/min/kg | 4.83 mL/min/kg | 0.19 | 9 µL/min/mg | 0.435 | 23 µL/min/mg | 7 µL/min/mg | 0.338 | 1 L/kg | 59% | COCCOc1cnc2ccn([C@H](C)c3nnc4ccc(-c5cc(C)no5)cn34)c(=O)c2c1 | 108% | 95% | 108% | 109% | 50% | 109% | bioavailability [30]: 53%; bioavailability [31]: 87%; half-life [32]: 4.3 h; AUC(0-inf) [33]: 94100 ng·h/mL; AUC(0-inf) [34]: 19300 ng·h/mL; CL free [35]: 11.3 mL/min/kg; Vd [36]: 1.4 L/kg; clearance [37]: 5 mL/min/kg
7 | 1.7 h |  | 53.3 mL/min/kg | 10.8 mL/min/kg | 0.206 | 9 µL/min/mg | 0.409 | 7 µL/min/mg | < 5 µL/min/mg | 0.286 | 1.2 L/kg | 36% | COc1cnc2ccn([C@H](C)c3nnc4ccc(-c5cnn(C)c5)cn34)c(=O)c2c1 |  |  |  |  |  |  | 
